US20200339691A1, “PROTEINACEOUS MOLECULES AND USES THEREFOR” (priority 2018, published 2020)
Each block holds one compound with its values, some of them ahead of it. Where a SMILES comes first, the peptide text is derived from it. The star is where a group is joined. Myristoyl = CCCCCCCCCCCCCC(=O)*

Tests used:
[1] = system: induced MCF7 cells; test: FACS CSC inhibition in induced MCF7 cells; type: cell-based, human; details: induced MCF7 cells (PMA/TGF-β), 50 μM peptide, 48 hours
Procedure: (§1) P1 Analogues were synthesized in accordance with the procedure of Example 5. 4×10^4 MDA-MB-231 cells or 1×10^4 induced or non-induced MCF7 cells were seeded in a 12 well plate with 1 mL complete media overnight. Induced MCF7 cells were prepared by stimulating cells with PMA/TGF-β and incubating for 12 hours. Cells were treated with 50 μM test peptide (dissolved in water) for 48 hours. Cells were then washed twice with 1 mL PBS and harvested by trypsinisation. Non-adherent cells were removed during the washing steps. Adherent cells were collected, and were subsequently stained with anti-human CD44, CD24 and Hoechst 33342 antibodies on ice for 30 mins. FACS was performed on BD FACS LSRII to measure the percentage of CD44^hiCD24^lo CSCs by dividing CD44^hiCD24^lo events by total live cell counts (Hoechst negative population) (as described in Fillmore and Kuperwasser (2007) Breast Cancer Res, 9: 303). The percentage of viable cells was calculated by dividing total live cell events by total single cells as described previously (Siemann and Keng (1986), Cancer Res, 46: 3556-3559).

[2] = system: MDA-MB-231 cells; type: cell-based, human; details: for killing of total MDA-MB-231 cells: not only the CSCs;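 for COI, Live Single Cells (Cell Count): live means Hoechst-negative events among single cells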
Excerpt: (§2) Non-adherent cells were removed during the washing steps.

[3] = system: MCF7 cells
Procedure: as §1

[4] = system: CD44^hiCD24^lo CSCs in MCF7 cells; test: FACS analysis of CD44^hiCD24^lo CSCs in MCF7 cells; type: cell-based, human; details: 50 μM peptide, 48 hours
Procedure: as §1

[5] = system: CD44^hiCD24^lo CSCs in MDA-MB-231 cells; test: FACS analysis of CD44^hiCD24^lo cancer stem cells in MDA-MB-231 cells treated with P1 analogues; type: cell-based, human; details: 50 μM peptide, 48 hours; for CD44^hiCD24^lo CSCs (%) / COI, Live Single CD44^hiCD24^lo CSCs (Cell Count): n = 1; for Average Inhibition of CSCs (%) / CD44^hiCD24^lo CSCs (%) Repeat 1 / CD44^hiCD24^lo CSCs (%) Repeat 2 / CD44^hiCD24^lo CSCs (%) Repeat 3: n = 3
Procedure: Analogues of P1 (Table 6) were designed and synthesized in accordance with the procedure of Example 5. The ability of these analogues to inhibit cancer stem cells was determined using FACS analysis on MDA-MB-231 cells, which constitutively contain approximately 90% CD44^hiCD24^lo cancer stem cells, treated with the peptides.
as §2

[6] = system: PD-L1 acetylated at lysine 263; test: Immunofluorescence (confocal) of acetylated PD-L1 in MDA-MB-231 cells, Example 6; type: cell-based, human; details: 50 μM, 72 hours
Procedure: (§3) Confocal laser scanning microscopy was employed to investigate the effect of P1, P2 and P3 (synthesized in accordance with Example 5) on the nuclear expression of PD-L1 and acetylated PD-L1 (PDL1-Ac) (FIG. 9).
(§4) 1×10^4 MDA-MB-231 cells were seeded onto coverslips in 12 well plates with DMEM media overnight. Cells were treated with 50 μM P1, P2, P3 or P4 or vehicle (water) for 72 hours. Treated cells were fixed with 3.7% formaldehyde, and then permeabilised by incubating with 1% Triton X-100 for 20 min. Cells were then probed with a rabbit anti-PD-L1 antibody (Santa Cruz Biotechnology) or rabbit anti-acetylated PD-L1 (generated as described above) and visualized with a donkey anti-rabbit AF 488. Cover slips were mounted on glass microscope slides with ProLong Diamond Antifade reagent (Life Technologies). Protein targets were localized using confocal laser scanning microscopy. Single 0.5 μm sections were obtained using a Leica DMI8 microscope using 100× oil immersion lens running LAX software. The final image was obtained by averaging four sequential images of the same section. Digital images were analyzed using ImageJ software as described above.

[7] = system: PD-L1; test: Immunofluorescence (confocal) of PD-L1 in MDA-MB-231 cells, Example 6; type: cell-based, human; details: 50 μM, 72 hours
Procedure: as §3, §4

[8] = system: DMNTI; test: Immunofluorescence of DMNTI in MDA-MB-231 cells; type: cell-based, human; details: 50 μM, 72 hours
Procedure: (§5) Cells were treated with 50 μM P1, P2, P3 or P4 (synthesized in accordance with Example 5) or vehicle (water) for 72 hours. […] Confocal laser scanning microscopy was used to measure the […] and TCFI as described above. At least 20 individual cells were analyzed per sample.

[9] = target: T1, p300 (Homo sapiens, UniProt Q09472); test: Immunofluorescence of p300 localization in MDA-MB-231 cells; type: cell-based; details: 50 μM
T1 construct: endogenous in cells; host or cells: MDA-MB-231
Procedure: (§6) The effect of P1, P2, P3 and P4 (synthesized in accordance with Example 5) on p300 localization was examined using confocal laser scanning microscopy. […] Cover slips were mounted on glass microscope slides with ProLong Diamond Antifade reagent (Life Technologies). Protein targets were localized by confocal laser scanning microscopy as described above. TNFI and PCC(r) were calculated using ImageJ software as previously described.

[10] = system: SETDB1; test: Immunofluorescence of SETDB1 in MDA-MB-231 cells; type: cell-based, human; details: 50 μM, 72 hours
Procedure: as §5

[11] = system: acetylated PD-L1 and p300; test: Colocalization (PCC(r)) of acetylated PD-L1 and p300 in MDA-MB-231 cells; type: cell-based, human; details: 50 μm
Procedure: as §6

[12] = system: EHTM2; test: Immunofluorescence of EHTM2 in MDA-MB-231 cells; type: cell-based, human; details: 50 μM, 72 hours
Procedure: as §5

[13] = system: PD-L1; test: PD-L1 in MDA-MB-231 mouse xenografts treated with abraxane or docetaxel; type: in vivo; details: 35 days, compared with untreated cells
Procedure: The expression of PD-L1 in mouse MDA-MB-231 xenografts treated for 35 days with abraxane (60 mg/kg) or docetaxel (10 mg/kg) was investigated using confocal laser scanning microscopy.
Five-week-old female nude mice were acquired and allowed to acclimatize for one week in the animal facility before experimentation. All experimental procedures were accessed and approved by The Australian National University Animal Experimental Ethics Committee (Ethics ID A2014/30). MDA-MB-231 human breast carcinoma cells were injected subcutaneously into the right mammary gland (2×10^6 cells in 1:1 PBS and BD Matrigel Matrix). Tumors were measured using external calipers and calculated using the modified ellipsoidal formula: […], where a=longest diameter and b=shortest diameter. Tumors were allowed to grow to around 50 mm^3 before commencing treatments (around 15 days). Abraxane (60 mg/kg) or Docetaxel (10 mg/kg) were administered by i.p. injection. Tumors were excised and collected in DMEM supplemented with 2.5% FCS. […] Digested tumors were spun and resuspended in DMEM, 2.5% FCS before being passed through a […] filter and PD-L1 nuclear localization was assessed using immunofluorescence microscopy as described supra.

[14] = MCF7 cells, 50 μM peptide, 48 hours

T1 sequence (Q09472 whole entry): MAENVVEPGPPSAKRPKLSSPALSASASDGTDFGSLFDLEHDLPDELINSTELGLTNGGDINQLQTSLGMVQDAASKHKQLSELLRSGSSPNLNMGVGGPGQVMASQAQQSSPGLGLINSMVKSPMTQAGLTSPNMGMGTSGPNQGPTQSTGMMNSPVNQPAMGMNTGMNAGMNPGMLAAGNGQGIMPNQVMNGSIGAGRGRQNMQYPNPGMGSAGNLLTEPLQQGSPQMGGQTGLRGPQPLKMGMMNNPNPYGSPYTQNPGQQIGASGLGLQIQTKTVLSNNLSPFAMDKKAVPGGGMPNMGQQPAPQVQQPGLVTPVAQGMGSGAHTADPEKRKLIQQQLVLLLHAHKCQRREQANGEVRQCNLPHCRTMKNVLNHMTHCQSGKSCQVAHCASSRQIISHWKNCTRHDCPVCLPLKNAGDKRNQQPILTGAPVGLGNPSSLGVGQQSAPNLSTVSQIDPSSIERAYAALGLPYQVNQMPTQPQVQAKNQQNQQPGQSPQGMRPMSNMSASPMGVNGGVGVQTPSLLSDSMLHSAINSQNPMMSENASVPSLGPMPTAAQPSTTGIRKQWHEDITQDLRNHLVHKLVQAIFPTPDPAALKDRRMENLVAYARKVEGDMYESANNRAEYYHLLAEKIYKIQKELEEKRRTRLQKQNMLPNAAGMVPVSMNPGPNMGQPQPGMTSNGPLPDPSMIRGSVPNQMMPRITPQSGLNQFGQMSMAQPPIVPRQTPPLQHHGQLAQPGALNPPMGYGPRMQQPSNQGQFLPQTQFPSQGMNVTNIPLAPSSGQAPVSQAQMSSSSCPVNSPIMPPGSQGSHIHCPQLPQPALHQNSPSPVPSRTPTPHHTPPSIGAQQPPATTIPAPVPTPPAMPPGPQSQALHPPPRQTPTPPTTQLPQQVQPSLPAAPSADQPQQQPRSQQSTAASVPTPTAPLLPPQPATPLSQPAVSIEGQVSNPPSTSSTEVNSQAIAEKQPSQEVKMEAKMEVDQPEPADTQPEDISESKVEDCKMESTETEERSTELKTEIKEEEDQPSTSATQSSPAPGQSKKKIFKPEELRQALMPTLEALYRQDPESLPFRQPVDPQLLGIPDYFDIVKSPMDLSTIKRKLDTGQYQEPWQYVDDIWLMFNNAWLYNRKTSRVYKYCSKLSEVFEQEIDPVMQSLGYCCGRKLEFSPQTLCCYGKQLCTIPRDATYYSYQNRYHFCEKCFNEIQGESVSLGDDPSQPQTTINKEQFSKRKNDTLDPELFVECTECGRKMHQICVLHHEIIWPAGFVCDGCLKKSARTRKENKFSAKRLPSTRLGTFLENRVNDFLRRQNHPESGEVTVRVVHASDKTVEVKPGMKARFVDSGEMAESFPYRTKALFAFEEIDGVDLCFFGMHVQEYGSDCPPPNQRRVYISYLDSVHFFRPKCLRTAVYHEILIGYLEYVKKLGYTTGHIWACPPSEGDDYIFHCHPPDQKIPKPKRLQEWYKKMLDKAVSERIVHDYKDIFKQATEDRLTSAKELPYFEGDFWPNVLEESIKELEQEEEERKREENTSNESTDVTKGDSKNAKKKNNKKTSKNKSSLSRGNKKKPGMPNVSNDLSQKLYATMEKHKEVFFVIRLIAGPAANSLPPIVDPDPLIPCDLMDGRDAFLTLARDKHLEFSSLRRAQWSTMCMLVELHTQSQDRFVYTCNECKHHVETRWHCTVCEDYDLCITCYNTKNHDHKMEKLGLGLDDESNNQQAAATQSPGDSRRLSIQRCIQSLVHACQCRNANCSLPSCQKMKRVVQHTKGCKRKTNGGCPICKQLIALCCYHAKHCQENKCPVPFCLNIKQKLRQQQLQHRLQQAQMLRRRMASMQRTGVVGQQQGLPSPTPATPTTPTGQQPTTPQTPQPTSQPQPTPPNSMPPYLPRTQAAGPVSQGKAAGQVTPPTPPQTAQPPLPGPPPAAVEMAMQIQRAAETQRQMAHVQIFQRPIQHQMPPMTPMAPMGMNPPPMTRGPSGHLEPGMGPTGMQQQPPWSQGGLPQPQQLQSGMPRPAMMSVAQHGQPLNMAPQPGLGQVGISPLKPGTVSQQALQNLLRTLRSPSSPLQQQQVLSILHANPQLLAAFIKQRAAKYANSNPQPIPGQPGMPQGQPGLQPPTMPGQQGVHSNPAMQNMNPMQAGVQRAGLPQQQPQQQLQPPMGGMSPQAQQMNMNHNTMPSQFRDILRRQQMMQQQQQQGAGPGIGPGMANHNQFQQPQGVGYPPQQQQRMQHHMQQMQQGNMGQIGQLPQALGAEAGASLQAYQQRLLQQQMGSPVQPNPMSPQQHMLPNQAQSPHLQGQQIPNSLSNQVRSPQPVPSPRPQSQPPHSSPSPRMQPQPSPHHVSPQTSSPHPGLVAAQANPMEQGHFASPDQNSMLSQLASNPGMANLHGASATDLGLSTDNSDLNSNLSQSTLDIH

Structure (SMILES): CCCCCCCCCCCCCC(=O)N[C@@H](CC(C)C)C(=O)N[C@H](C(=O)N[C@@H](Cc1ccccc1)C(=O)N[C@H](C(=O)N[C@@H](Cc1ccccc1)C(=O)N[C@@H](CCCNC(=N)N)C(=O)N[C@@H](CC(C)C)C(=O)N[C@@H](CC(C)C)C(=O)N[C@@H](CCCCN)C(=O)NCC(=O)N[C@@H](CCCNC(=N)N)C(=O)N[C@@H](CCSC)C(=O)N[C@@H](CCSC)C(=O)N[C@@H](CC(=O)O)C(=O)N[C@H](C(=O)N[C@@H](CCCCN)C(=O)N[C@@H](CCCCN)C(N)=O)C(C)C)[C@@H](C)CC)[C@@H](C)O [Peptide 2853825, Myristoyl-LTFIFRLLKGRMMDVKK-NH2] (Myristoyl-LTFIFRLLKGRMMDVKK-NH2)
CSC inhibition (%) [1]: Cytotoxic
COI (Cell Count) ([2]; 50 μM peptide, 48 hours, n = 1): 18
COI, Live Single Cells (Cell Count) ([2]; 50 μM peptide, 48 hours, n = 1): 0
COI, Single (Cell Count) ([2]; 50 μM peptide, 48 hours, n = 1): 15
Total Cell Count ([2]; 50 μM peptide, 48 hours, n = 1): 1583
Viable Cells (%) ([2]; 50 μM peptide, 48 hours, n = 1): 0.00%
killing of total MDA-MB-231 cells [2]: killed the majority of the total MDA-MB-231 cells
cytotoxicity to MCF7 cells [3]: cytotoxic
% Viable Cells [3, 14]: 0.00%
COI Count [3, 14]: 72
COI/Single Cell Count [3, 14]: 35
COI/Single Cells/Live Count [3, 14]: 0
Total Count [3, 14]: 10000
CD44^hiCD24^lo CSC % [4]: 0.00%
COI/Single Cells/Live/CD44^hiCD24^lo CSCs Count [4]: 0
Inhibition of CSCs (%) Repeat 1 [5]: 100.00%
Inhibition of CSCs (%) Repeat 2 [5]: 100.00%
Inhibition of CSCs (%) Repeat 3 [5]: 100.00%
CD44^hiCD24^lo CSCs (%) [5]: 0.00%
COI, Live Single CD44^hiCD24^lo CSCs (Cell Count) [5]: 0
Average Inhibition of CSCs (%) [5]: 100.00%
CD44^hiCD24^lo CSCs (%) Repeat 1 [5]: 0.00%
CD44^hiCD24^lo CSCs (%) Repeat 2 [5]: 0.00%
CD44^hiCD24^lo CSCs (%) Repeat 3 [5]: 0.00%

Structure (SMILES): CCCCCCCCCCCCCC(=O)N[C@@H](CC(C)C)C(=O)N[C@H](C(=O)N[C@@H](Cc1ccccc1)C(=O)N[C@H](C(=O)N[C@@H](Cc1ccccc1)C(=O)N[C@@H](CCCNC(=N)N)C(=O)N[C@@H](CC(C)C)C(=O)N[C@@H](CCCNC(=N)N)C(=O)N[C@@H](CCCCN)C(=O)NCC(=O)N[C@@H](CCCNC(=N)N)C(=O)N[C@@H](CCSC)C(=O)N[C@@H](CCSC)C(=O)N[C@@H](CC(=O)O)C(=O)N[C@@H](CCCCN)C(=O)N[C@@H](CCCCN)C(=O)N[C@@H](CCCCN)C(N)=O)[C@@H](C)CC)[C@@H](C)O [Peptide 2853839, Myristoyl-LTFIFRLRKGRMMDKKK-NH2] (Myristoyl-LTFIFRLRKGRMMDKKK-NH2)
CSC inhibition (%) [1]: 83.87%
COI (Cell Count) ([2]; 50 μM peptide, 48 hours, n = 1): 12
COI, Live Single Cells (Cell Count) ([2]; 50 μM peptide, 48 hours, n = 1): 2
COI, Single (Cell Count) ([2]; 50 μM peptide, 48 hours, n = 1): 10
Total Cell Count ([2]; 50 μM peptide, 48 hours, n = 1): 619
killing of total MDA-MB-231 cells [2]: killed the majority of the total MDA-MB-231 cells
COI Count [3, 14]: 3128
COI/Single Cell Count [3, 14]: 2294
COI/Single Cells/Live Count [3, 14]: 2200
Total Count [3, 14]: 10000
CD44^hiCD24^lo CSC % [4]: 1.14%
COI/Single Cells/Live/CD44^hiCD24^lo CSCs Count [4]: 25
Inhibition of CSCs (%) Repeat 1 [5]: 100.00%
Inhibition of CSCs (%) Repeat 2 [5]: 100.00%
Inhibition of CSCs (%) Repeat 3 [5]: 100.00%
CD44^hiCD24^lo CSCs (%) [5]: 0.00%
COI, Live Single CD44^hiCD24^lo CSCs (Cell Count) [5]: 0
Average Inhibition of CSCs (%) [5]: 100.00%
CD44^hiCD24^lo CSCs (%) Repeat 1 [5]: 0.00%
CD44^hiCD24^lo CSCs (%) Repeat 2 [5]: 0.00%
CD44^hiCD24^lo CSCs (%) Repeat 3 [5]: 0.00%

p300 nuclear expression [9]: slightly decreased
Structure (SMILES): CCCCCCCCCCCCCC(=O)N[C@@H](Cc1ccccc1)C(=O)N[C@@H](CCCNC(=N)N)C(=O)N[C@@H](CC(C)C)C(=O)N[C@@H](CCCNC(=N)N)C(=O)N[C@@H](CCCCN)C(=O)NCC(=O)N[C@@H](CCCNC(=N)N)C(=O)N[C@@H](CCSC)C(=O)N[C@@H](CCSC)C(=O)N[C@@H](CC(=O)O)C(=O)N[C@H](C(=O)N[C@@H](CCCCN)C(=O)N[C@@H](CCCCN)C(N)=O)C(C)C [Peptide P4, Myristoyl-FRLRKGRMMDVKK-NH2] (Myristoyl-FRLRKGRMMDVKK-NH2)
localization of acetylated PD-L1 [6]: no effect
localization of PD-L1 [7]: no effect
expression / nuclear localization of DMNTI [8]: inhibited
COI (Cell Count) ([2]; 50 μM peptide, 48 hours, n = 1): 4910
COI, Live Single Cells (Cell Count) ([2]; 50 μM peptide, 48 hours, n = 1): 3777
COI, Single (Cell Count) ([2]; 50 μM peptide, 48 hours, n = 1): 3903
Total Cell Count ([2]; 50 μM peptide, 48 hours, n = 1): 7923
expression / nuclear localization of SETDB1 [10]: inhibited
colocalization of acetylated PD-L1 and p300 [11]: no effect
expression / localization of EHTM2 [12]: did not have a significant effect
CD44^hiCD24^lo CSCs (%) [5]: 87.66%
COI, Live Single CD44^hiCD24^lo CSCs (Cell Count) [5]: 3311

Structure (SMILES): CC(=O)O[C@@]12CO[C@@H]1C[C@H](O)[C@@]1(C)C(=O)[C@H](O)C3=C(C)[C@@H](OC(=O)[C@H](O)[C@@H](NC(=O)OC(C)(C)C)c4ccccc4)C[C@@](O)([C@@H](OC(=O)c4ccccc4)[C@H]21)C3(C)C [docetaxel]
PD-L1 in the nucleus of surviving, resistant xenograft cells [13]: higher levels of PD-L1 in the nucleus
